The results in this text go back to patent US9125913B2, “Bcl-2-selective apoptosis-inducing agents for the treatment of cancer and immune diseases” (AbbVie Inc., priority 2008, dated 2015).

This test deals with GST-Bcl-2. Briefly: TR-FRET binding assay, Bcl-2. To be noted: TR-FRET Ki values. The procedure, abridged:
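Ki values come from Wang's competitive-binding equation applied to TR-FRET signal (excitation 340/35 nm; emission 520/525 nm F-Bak peptide, 495/510 nm Tb antibody). Protein, probe and antibody incubated with compound 3 h at room temperature; dilution series began at 50 μM as 2× stock in 10% DMSO.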
(In general: In TR-FRET formats the signal depends on donor and acceptor labels being close together.)
For `CC1(C)CCC(CN2CCN(c3ccc(C(=O)NS(=O)(=O)c4ccc(NCCN5CCOCC5)c(S(=O)(=O)C(F)(F)F)c4)c(Oc4ccc5[nH]ccc5c4)c3)CC2)=C(c2ccc(Cl)cc2)C1` [EXAMPLE 351, 4-(4-{[2-(4-chlorophenyl)-4,4-dimethylcyclohex-1-en-1-yl]methyl}piperazin-1-yl)-2-(1H-indol-5-yloxy)-N-({4-[(2-morpholin-4-ylethyl)amino]-3-[(trifluoromethyl)sulfonyl]phenyl}sulfonyl)benzamide], the “Binding selectivity ratio (Bcl-XL Ki/Bcl-2 Ki)” value (“Binding selectivity ratio” for short) is listed as more than 418.7.
The same measure for `CN1CCC(Nc2ccc(S(=O)(=O)NC(=O)c3ccc(N4CCN(CC5=C(c6ccc(Cl)cc6)CCC(O)C5)CC4)cc3Oc3ccc4[nH]ccc4c3)cc2[N+](=O)[O-])CC1` (centres unmarked) [EXAMPLE 224, 4-(4-{[2-(4-chlorophenyl)-5-hydroxycyclohex-1-en-1-yl]methyl}piperazin-1-yl)-2-(1H-indol-5-yloxy)-N-({4-[(1-methylpiperidin-4-yl)amino]-3-nitrophenyl}sulfonyl)benzamide]: more than 99.9; for `CC1(C)CCC(CN2CCN(c3ccc(C(=O)NS(=O)(=O)c4cnc(OCC5(F)CCOCC5)c(Cl)c4)c(Oc4cccc5[nH]ncc45)c3)CC2)=C(c2ccc(Cl)cc2)C1` [EXAMPLE 404, N-({5-chloro-6-[(4-fluorotetrahydro-2H-pyran-4-yl)methoxy]pyridin-3-yl}sulfonyl)-4-(4-{[2-(4-chlorophenyl)-4,4-dimethylcyclohex-1-en-1-yl]methyl}piperazin-1-yl)-2-(1H-indazol-4-yloxy)benzamide]: 2423; for `CC(C)(C)c1ccc(CN2CCN(c3ccc(C(=O)NS(=O)(=O)c4ccc(NCC5CCOCC5)c([N+](=O)[O-])c4)c(Oc4ccc5[nH]ccc5c4)c3)CC2)c(-c2ccc(Cl)cc2)c1` [EXAMPLE 341, 4-{4-[(5-tert-butyl-4′-chloro-1,1′-biphenyl-2-yl)methyl]piperazin-1-yl}-2-(1H-indol-5-yloxy)-N-({3-nitro-4-[(tetrahydro-2H-pyran-4-ylmethyl)amino]phenyl}sulfonyl)benzamide]: more than 50.8.
As for `CC1(C)CCC(CN2CCN(c3ccc(C(=O)NS(=O)(=O)c4ccc(NCC56CC7CC(C5)C(O)[C@H](C7)C6)c([N+](=O)[O-])c4)c(Oc4ccc5[nH]ccc5c4)c3)CC2)=C(c2ccc(Cl)cc2)C1` (stereo partly drawn) [EXAMPLE 321, 4-(4-{[2-(4-chlorophenyl)-4,4-dimethylcyclohex-1-en-1-yl]methyl}piperazin-1-yl)-N-{[4-({[(3R)-4-hydroxy-1-adamantyl]methyl}amino)-3-nitrophenyl]sulfonyl}-2-(1H-indol-5-yloxy)benzamide], the figure is more than 957.9; as for `CC1(C)CCC(CN2CCN(c3ccc(C(=O)NS(=O)(=O)c4ccc(NCC5CN(C6COC6)CCO5)c([N+](=O)[O-])c4)c(Oc4cccc5[nH]cnc45)c3)CC2)=C(c2ccc(Cl)cc2)C1` (centres unmarked) [EXAMPLE 433, 2-(1H-benzimidazol-4-yloxy)-4-(4-{[2-(4-chlorophenyl)-4,4-dimethylcyclohex-1-en-1-yl]methyl}piperazin-1-yl)-N-[(3-nitro-4-{[(4-oxetan-3-ylmorpholin-2-yl)methyl]amino}phenyl)sulfonyl]benzamide], 228.55.
The same measure for `CN1CCC(Nc2ccc(S(=O)(=O)NC(=O)c3ccc(N4CCN(CC5=C(c6ccc(Cl)cc6)CC(C)(C)CC5)CC4)cc3Nc3cccnc3)cc2[N+](=O)[O-])CC1` [EXAMPLE 396, 4-(4-{[2-(4-chlorophenyl)-4,4-dimethylcyclohex-1-en-1-yl]methyl}piperazin-1-yl)-N-({4-[(1-methylpiperidin-4-yl)amino]-3-nitrophenyl}sulfonyl)-2-(pyridin-3-ylamino)benzamide]: more than 5706; for `CC1(C)CCC(CN2CCN(c3ccc(C(=O)NS(=O)(=O)c4ccc(S(C)(=O)=O)cc4)c(Oc4ccc5[nH]ccc5c4)c3)CC2)=C(c2ccc(Cl)cc2)C1` [EXAMPLE 382, 4-(4-{[2-(4-chlorophenyl)-4,4-dimethylcyclohex-1-en-1-yl]methyl}piperazin-1-yl)-2-(1H-indol-5-yloxy)-N-{[4-(methylsulfonyl)phenyl]sulfonyl}benzamide]: more than 573.9; for `O=C(NS(=O)(=O)c1ccc(NCC2CCOCC2)c([N+](=O)[O-])c1)c1ccc(N2CCN(Cc3ccccc3-c3ccc(Cl)cc3)CC2)cc1Oc1cccnc1` [Example 79, 4-{4-[(4′-chloro-1,1′-biphenyl-2-yl)methyl]piperazin-1-yl}-N-({3-nitro-4-[(tetrahydro-2H-pyran-4-ylmethyl)amino]phenyl}sulfonyl)-2-(pyridin-3-yloxy)benzamide]: 47.4.
Regarding `CC1(C)CCC(CN2CCN(c3ccc(C(=O)NS(=O)(=O)c4ccc(OCC#CCN5CCOCC5)c([N+](=O)[O-])c4)c(Oc4ccc5[nH]ccc5c4)c3)CC2)=C(c2ccc(Cl)cc2)C1` [EXAMPLE 390, 4-(4-{[2-(4-chlorophenyl)-4,4-dimethylcyclohex-1-en-1-yl]methyl}piperazin-1-yl)-2-(1H-indol-5-yloxy)-N-({4-[(4-morpholin-4-ylbut-2-ynyl)oxy]-3-nitrophenyl}sulfonyl)benzamide], the “Binding selectivity ratio” value is reported as 339.6.
As for `CC1(C)CCC(c2ccc(Cl)cc2)=C(CN2CCN(c3ccc(C(=O)NS(=O)(=O)c4ccc(NCCCN5CCOCC5)c([N+](=O)[O-])c4)c(Oc4ccccc4)c3)CC2)C1` [Example 19, 4-(4-{[2-(4-chlorophenyl)-5,5-dimethylcyclohex-1-en-1-yl]methyl}piperazin-1-yl)-N-({4-[(3-morpholin-4-ylpropyl)amino]-3-nitrophenyl}sulfonyl)-2-phenoxybenzamide], the figure is 23.6; as for `CC1(C)CCC(CN2CCN(c3ccc(C(=O)NS(=O)(=O)c4cc(F)c(NCC5CCOCC5)cc4Cl)c(Oc4ccc5[nH]ccc5c4)c3)CC2)=C(c2ccc(Cl)cc2)C1` [EXAMPLE 379, N-({2-chloro-5-fluoro-4-[(tetrahydro-2H-pyran-4-ylmethyl)amino]phenyl}sulfonyl)-4-(4-{[2-(4-chlorophenyl)-4,4-dimethylcyclohex-1-en-1-yl]methyl}piperazin-1-yl)-2-(1H-indol-5-yloxy)benzamide], more than 2.6; as for `CC1(C)CCC(CN2CCN(c3ccc(C(=O)NS(=O)(=O)c4cnc(NCC5CCOCC5)c(-c5nccs5)c4)c(Oc4cccc5[nH]ccc45)c3)CC2)=C(c2ccc(Cl)cc2)C1` [EXAMPLE 365, 4-(4-{[2-(4-chlorophenyl)-4,4-dimethylcyclohex-1-en-1-yl]methyl}piperazin-1-yl)-2-(1H-indol-4-yloxy)-N-{[6-[(tetrahydro-2H-pyran-4-ylmethyl)amino]-5-(1,3-thiazol-2-yl)pyridin-3-yl]sulfonyl}benzamide], more than 612.9.
For `CC(C1=C(c2ccc(Cl)cc2)CC(C)(C)CC1)N1CCN(c2ccc(C(=O)NS(=O)(=O)c3ccc(NCC4CCOCC4)c([N+](=O)[O-])c3)c(Oc3ccc4[nH]ccc4c3)c2)CC1` (centres unmarked) [EXAMPLE 253, 4-(4-{1-[2-(4-chlorophenyl)-4,4-dimethylcyclohex-1-en-1-yl]ethyl}piperazin-1-yl)-2-(1H-indol-5-yloxy)-N-({3-nitro-4-[(tetrahydro-2H-pyran-4-ylmethyl)amino]phenyl}sulfonyl)benzamide], the “Binding selectivity ratio” value is more than 4663.3.
